# Laboratory results: patent US10471035B2, “Compositions and methods for using esters of meroterpenes and of other resveratrol analogues” (Sunny BioDiscovery, priority 2014, dated 2019)
# Columns and labels:
# [1] = system: UVA-irradiated epidermal substitutes cultured on adult fibroblast monolayer; experiment: Gene expression in UVA-irradiated epidermal substitutes; GEO matching; assay type: cell-based
# Source text: (GSE: GEO Series; GPL: GEO Platforms; stats between −0.05 and 0.05 considered not significant match).
# (GSE: GEO Series; GPL: GEO Platforms; stats between −0.05 and 0.05 considered not a significant match).
# adult HEK = experiment: Adult HEK proliferation; assay type: cell-based, human; details: 2.5 μg/ml
# EpiOcular™ tissue = experiment: EpiOcular Eye Irritation Test (OCL-200-EIT); assay type: cell-based, human
# Protocol: Also, the effect of SBD.SE on the epiocular system was investigated. Epiocular system consists of normal, human-derived epidermal keratinocytes, which have been cultured to form a stratified, squamous epithelium similar to that found in the cornea.
# The effect of SBD.SE was assayed on the EpiOcular™ tissue, using the MatTek (Ashland, Mass.) EpiOcular™ Eye Irritation Test (OCL-200-EIT) protocol.
# Based on the “depth of injury” model, the Epiocular EIT is intended to differentiate those materials that are non-irritants (would not require a warning label in the European chemical classification systems) from those that would require labeling as either GHS1 or 2. Consequentially, this test allows to distinguish those materials that would induce no damage or damage limited into the corneal epithelium from those that would damage/destroy the epithelium and continue damage into the stroma.
# This protocol utilizes the MTT-based cytotoxicity readout as the experimental endpoint, and thus effectively measures the cytotoxicity of test materials. Biological duplicates are used for all calculations. SBD.SE was tested at 10% (100 mg/ml) in dimethyl isosorbide (DMI). The negative control was type I sterile water and the positive control was neat methyl acetate. The pre-incubation time I was 60 min., preincubation time II—overnight, treatment time—30 min., post-soak is 120 min, incubation time with MTT test was 3 h and the extraction was overnight. The extracted formazan was quantified with Molecular Devices microplate spectrophotometer MAX190 at 570 nm.
# (§1) Tissue irritation is a common side effect of retinoids. It is mediated, at least in part, by retinoid interaction with retinoic acid receptors (RARs; Thacher S M, Vasudevan J, Chandraratna R A. Therapeutic applications for ligands of retinoid receptors. Curr Pharm Des. 2000 January; 6(1):25-58; Kambayashi H, Odake Y, Takada K, Funasaka Y, Ichihashi M, Kato S. N-retinoyl-D-glucosamine, a new retinoic acid agonist, mediates topical retinoid efficacy with no irritation on photoaged skin. Br J Dermatol. 2005 December; 153 Suppl 2:30-6).
# RAR = experiment: Cignal RAR reporter assay; assay type: cell-based; details: up to 50 μg/ml
# Source text: as §1
compound,measurement,setting,value
"C=C[C@@](C)(/C=C/c1ccc(OC(=O)c2ccccc2O)cc1)CCC=C(C)C [SBD.SE, Salicylic acid ester of bakuchiol]",GEO match Stat,[1]; vitro131 reconstituted epidermis scabies mite extract -VS- reconstituted epidermis untreated (GSE48459/GPL6244),−0.105
same,GEO match Stat,[1]; vitro132 HaCaT keratinocytes cidofovir -VS- HaCaT keratinocytes untreated (GSE39293/GPL570),−0.116
same,GEO match Stat,[1]; vitro134 keratinocytes keloid -VS- keratinocytes uninvolved (GSE44270/GPL6244),0.153
same,GEO match Stat,[1]; vitro137 N/TERT-1 keratinocytes miR-198 -VS- N/TERT-1 keratinocytes control (GSE37967/GPL10558),0.197
same,GEO match Stat,[1]; vitro139 HaCaT keratinocytes miR-483-3p overexpression -VS- HaCaT keratinocytes control (GSE19931/GPL1456),−0.08
same,GEO match Stat,[1]; vitro145 HaCaT keratinocytes cobalt(II) chloride 3 hrs -VS- HaCaT keratinocytes water control (GSE16727/GPL4133),0.1
same,GEO match Stat,"[1]; vitro147 HaCaT keratinocytes tungsten carbide cobalt 3 days -VS- HaCaT keratinocytes water control (GSE16727/GPL4133), not matching retinol palmitate",0.09
same,GEO match Stat,[1]; vitro148 HaCaT keratinocytes cobalt(II) chloride 3 hrs -VS- HaCaT keratinocytes water control (GSE16727/GPL4133),0.122
same,GEO match Stat,[1]; vitro150 reconstituted epidermis 0 hrs after 10 cGy radiation -VS- reconstituted epidermis control (GSE29344/GPL6883),−0.073
same,GEO match Stat,[1]; vitro151 reconstituted epidermis 3 hrs after 10 cGy radiation -VS- reconstituted epidermis control (GSE29344/GPL6883),−0.088
same,GEO match Stat,[1]; vitro152 reconstituted epidermis 8 hrs after 10 cGy radiation -VS- reconstituted epidermis control (GSE29344/GPL6883),−0.078
same,GEO match Stat,[1]; vitro153 reconstituted epidermis 24 hrs after 10 cGy radiation -VS- reconstituted epidermis control (GSE29344/GPL6883),−0.154
same,GEO match Stat,[1]; vitro156 reconstituted epidermis 8 hrs after 100 cGy radiation -VS- reconstituted epidermis control (GSE29344/GPL6883),−0.119
same,GEO match Stat,"[1]; vitro160 HaCaT keratinocytes 5′-aza-2-deoxycytidine -VS- HaCaT keratinocytes untreated (GSE33493/GPL6883), not matching retinol palmitate",−0.098
same,GEO match Stat,[1]; vitro165 HaCaT keratinocytes Ino-C2-PAF + IL1A + IL17 + IL22 + TNF + OsM -VS- HaCaT keratinocytes untreated (GSE37361/GPL13607),−0.119
same,GEO match Stat,"[1]; vivo1 PP skin -VS- PN skin (GSE2737/GPL91), not matching retinol palmitate",0.085
same,GEO match Stat,"[1]; vivo6 PP skin -VS- PN skin (GSE26866/GPL571), not matching retinol palmitate",0.127
same,GEO match Stat,"[1]; vivo7 PP skin -VS- PN skin (GSE30999/GPL570), not matching retinol palmitate",0.115
same,GEO match Stat,"[1]; vivo8 PP skin -VS- NN skin (GSE13355/GPL570), not matching retinol palmitate",0.123
same,GEO match Stat,"[1]; vivo9 PP skin -VS- NN skin (GSE14905/GPL570), not matching retinol palmitate",0.132
same,GEO match Stat,"[1]; vivo12 PP epidermis -VS- PN epidermis (GSE26866/GPL571), not matching retinol palmitate",0.084
same,GEO match Stat,"[1]; vivo15 PP skin 1 wk etanercept -VS- PN skin baseline (GSE11903/GPL571), not matching retinol palmitate",0.108
same,GEO match Stat,"[1]; vivo19 PP skin etanercept 1 wk -VS- PP skin baseline (GSE11903/GPL571), not matching retinol palmitate",−0.134
same,GEO match Stat,[1]; vivo25 PN skin IFNg-treated 24 hrs -VS- PN skin baseline (GSE32407/GPL571),−0.11
same,GEO match Stat,[1]; vivo26 PN skin IFNg-treated 24 hrs -VS- PN skin placebo 24 hrs (GSE32407/GPL571),−0.119
same,GEO match Stat,[1]; vivo27 NN skin IFNg-treated 24 hrs -VS- NN skin baseline (GSE32407/GPL571),−0.09
same,GEO match Stat,[1]; vivo32 atopic dermatitis uninvolved epidermis -VS- NN epidermis (GSE26952/GPL2700),0.098
same,GEO match Stat,[1]; vivo42 atopic dermatitis lesion -VS- NN skin (GSE5667/GPL96 + GPL97),0.11
same,GEO match Stat,[1]; vivo43 atopic dermatitis lesion -VS- uninvolved skin (GSE5667/GPL96 + GPL97),0.111
same,GEO match Stat,[1]; vivo49 epidermis sodium lauryl sulphate 11 days -VS- epidermis basline (GSE18206/GPL570),0.152
same,GEO match Stat,[1]; vivo50 epidermis nonanoic acid 30 min -VS- epidermis basline (GSE18206/GPL570),0.125
same,GEO match Stat,[1]; vivo51 epidermis nonanoic acid 4 hrs -VS- epidermis basline (GSE18206/GPL570),0.103
same,GEO match Stat,[1]; vivo53 epidermis nonanoic acid 11 days -VS- epidermis basline (GSE18206/GPL570),0.17
same,GEO match Stat,"[1]; vivo59 wound margin 7+ days healed -VS- NN skin (GSE8056/GPL570), not matching retinol palmitate",0.094
same,GEO match Stat,"[1]; vivo73 skin diffuse cutaneous systemic sclerosis -VS- NN skin (GSE32413/GPL4133), not matching retinol palmitate",0.088
same,GEO match Stat,"[1]; vivo76 skin isotretinoin 8 wks -VS- skin baseline (GSE11792/GPL571), not matching retinol palmitate",−0.128
same,GEO match Stat,[1]; vivo82 skin Haemophilus ducreyi infected -VS- skin PBS treated (GSE5547/GPL570),−0.105
same,GEO match Stat,"[1]; vivo83 basal cell carcinoma -VS- NN skin (GSE7553/GPL570), not matching retinol palmitate",0.081
same,GEO match Stat,"[1]; vivo85 squamous cell carcinoma -VS- NN skin (GSE7553/GPL570), not matching retinol palmitate",0.12
same,GEO match Stat,"[1]; vivo88 squamous cell carcinoma -VS- NN skin (GSE2503/GPL96), not matching retinol palmitate",0.111
same,GEO match Stat,"[1]; vivo93 melanoma in situ -VS- NN skin (GSE4587/GPL570), not matching retinol palmitate",0.102
same,GEO match Stat (inverse correlation with SBD.SE effect),[1]; vivo99 UVB radiation 1 minimal erythema dose -VS- untreated skin (GSE22083/GPL96),−0.088
same,GEO match Stat (inverse correlation with SBD.SE effect),[1]; vivo100 UVB radiation 100 J/m2 -VS- untreated skin (GSE22083/GPL96),−0.102
same,GEO match Stat (inverse correlation with SBD.SE effect),[1]; vivo101 UVA radiation 0.1 minimal erythema dose -VS- untreated skin (GSE22083/GPL96),−0.096
same,GEO match Stat,"[1]; vivo110 reticular dermis -VS- NN Skin (GSE42114/GPL570), not matching retinol palmitate",−0.074
same,GEO match Stat,[1]; vivo114 dermatomyositis -VS- NN Skin (GSE46239/GPL570),0.116
same,GEO match Stat,"[1]; vivo115 seborrheic keratosis -VS- uninvolved Skin (GSE22998/(GPL570)), not matching retinol palmitate",0.075
same,GEO match Stat,"[1]; vivo116 eschars in mediterranean spotted fever -VS- NN Skin (GSE32993/GPL6480), not matching retinol palmitate",0.097
same,GEO match Stat,[1]; vivo118 narrow-band UVB 24 hrs -VS- uninvolved skin (GSE41078/GPL571),−0.116
same,GEO match Stat,"[1]; vivo120 atopic dermatitis chronic -VS- uninvolved skin (GSE36842/GPL570), not matching retinol palmitate",0.125
same,inhibition of adult HEK proliferation,adult HEK,not inhibited
same,irritation in reconstituted squamous epithelium model,EpiOcular™ tissue,no statistically significant irritation
same,classification in EpiOcular EIT,EpiOcular™ tissue; 10% (100 mg/ml) in DMI,non-irritant and non-cytotoxic
same,viability (% of water control),"EpiOcular™ tissue; SBD.SE 10% (100 mg/ml) in DMI, methyl acetate neat, 30 min treatment, MTT",over 60%
same,transactivation of RAR,RAR,no effect
